Patent US5789654A, “Transgenic animals deficient in endogenous β3 -adrenergic receptor and uses thereof” (Beth Israel Hospital Association, priority 1996, dated 1998)
Where two headings read alike, the source gives them in different places. Each block holds one molecule with its values, some of them ahead of it.

Legend:
human β3 -AR = molecular target: T1, human β3 -AR (Homo sapiens, UniProt P13945); assay: O2 consumption in knockout mice expressing the reconstituted human β3 -AR; format: in vivo, mouse; conditions: 10 mg/ml
T1 construct: reconstituted with an 80 kb β3 -AR human genomic clone; expressed in transfected cells; host or cells: transgenic beta-3-AR-deficient mice (human genomic P1 insert injected into zygotes; mRNA detected in brown adipose tissue only)
T1 sequence (P13945 whole entry): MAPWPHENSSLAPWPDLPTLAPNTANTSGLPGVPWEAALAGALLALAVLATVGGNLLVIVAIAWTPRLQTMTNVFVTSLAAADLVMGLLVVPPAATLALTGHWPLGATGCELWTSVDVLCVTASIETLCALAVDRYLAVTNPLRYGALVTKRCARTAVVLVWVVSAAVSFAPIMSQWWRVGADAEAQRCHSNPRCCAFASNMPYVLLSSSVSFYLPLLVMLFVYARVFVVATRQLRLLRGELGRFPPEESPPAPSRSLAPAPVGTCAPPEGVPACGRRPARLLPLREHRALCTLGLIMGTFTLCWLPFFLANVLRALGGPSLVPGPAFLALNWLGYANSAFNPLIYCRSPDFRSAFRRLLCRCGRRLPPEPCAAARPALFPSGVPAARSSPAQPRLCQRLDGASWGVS
Description: The effects on oxygen consumption were then assessed according to standard methods (e.g., those described herein).
(§1) Oxygen consumption was measured as described by Lowell et al. (supra) in twelve-week-old control, β3 -AR-deficient male mice, and β3 -AR-deficient knockout mice expressing the human β3-AR gene.

β3 -AR [1] = format: biochemical, mouse; conditions: for reduction of stimulatory effect on adenylate cyclase activity: β3 -AR-deficient vs wild type
Description: (§2) To determine the functional consequences of β3 -AR deficiency on β-adrenergic signalling, the effects of β-adrenergic agonists on adenylate cyclase activity and lipolysis were assessed. For determination of adenylate cyclase activity (FIG. 5), plasma membranes were obtained from isolated white adipocytes or interscapular brown adipose tissue, and then were incubated in the presence of various agonists. […] To assess lipolysis (FIGS. 6A and 6B), white adipocytes were isolated from epididymal fat pads, and then incubated in the presence of various agonists. Rates of lipolysis were determined by quantitating the release of glycerol.

[2] = test system: isolated white adipocytes; assay: Lipolysis (glycerol release) in isolated white adipocytes; format: cell-based, mouse; conditions: +ADA
Description: as §2
For analysis of lipolysis, isolated white adipocytes (100 μl of a 10% isolate fat cell suspension) were incubated in a final volume of 500 μl, and glycerol release was measured over a fifteen minute period. […] Except where noted, the incubation medium consisted of a Krebs-Ringer-Hepes (30 mM) buffer (pH 7.4) supplemented with 2.5% bovine serum albumin (fraction V), 10 μM PIA (N^6 -[R-(-)-1-methyl-2-phenyl]adenosine), 1 unit/ml adenosine deaminase, and varying concentrations of agonists.

β3 -AR [3] = format: in vivo, mouse; conditions: for FFA: serum, fifteen minutes after injection
Description: (§3) To determine the effect of β3 -AR deficiency on β-adrenergicsignaling in vivo, various adrenergic agonists were administered to control and knockout mice, and the effects on serum levels of FFAs, glycerol, and thermogenesis were assessed.
(§4) Whole blood was collected and analyzed for blood glucose levels (One Touch Blood Glucose Meter, Lifescan, Inc., Milpitas, Calif.). Serum was then isolated and assayed for FFAs (NEFA C kit, Wako Pure Chemical Industries, Ltd.), glycerol (GPO-Trinder Kit, procedure 337, Sigma), and insulin (rat insulin kit, Linco Research Inc., St. Louis, Mo.) according to the manufacturers' protocols.

β3 -AR [4] = format: in vivo, mouse; conditions: for stimulated oxygen consumption: β3 -AR-deficient male mice vs control
Description: (§5) Mice that received norepinephrine were anesthetized with pentobarbital for the study.
as §1

β3 -AR [5] = assay: Acute effect on plasma insulin and blood glucose; format: in vivo, mouse; conditions: β3 -AR-deficient mice; 1 mg/kg intraperitoneal
Source text: (§6) FIGS. 8A-B are graphs showing the acute effect of saline or CL 316,243 on plasma insulin and blood glucose concentrations. […] Blood was obtained from the tail fifteen minutes after […]. The results are expressed as the mean ±S.E. (+/+=seven mice, -/-=four mice).
as §4

β3 -AR [6] = assay: Effect of a single dose on food intake; format: in vivo, mouse; conditions: β3 -AR-deficient mice; 1 mg/kg intraperitoneal; twenty-four hours
Description: (§7) FIG. 9 is a graph showing the effect of a single dose of CL 316,243 on food intake. […] The mice were housed individually during the test period, and results for each group are the mean of five animals (±S.E.). Food intake was determined during the twenty-four hours following CL 316,243 or saline treatment.
(§8) To acclimate the mice to injections and handling, saline was injected daily for three days preceding day zero of the study. The mice were housed individually during the study. Food was weighed before injection and twenty-four hours after, and the differences were assumed to represent grams of food eaten per day. The cages were inspected for food spillage, and none was noted.

β3 -AR [7] = molecular target: T2, β3 -AR (Mus musculus, UniProt P25962); format: in vivo; parameters: endogenous in cells; host or cells: whole mice (control +/+ and beta-3-AR-deficient -/-, FVB background)
T2 sequence (P25962 whole entry): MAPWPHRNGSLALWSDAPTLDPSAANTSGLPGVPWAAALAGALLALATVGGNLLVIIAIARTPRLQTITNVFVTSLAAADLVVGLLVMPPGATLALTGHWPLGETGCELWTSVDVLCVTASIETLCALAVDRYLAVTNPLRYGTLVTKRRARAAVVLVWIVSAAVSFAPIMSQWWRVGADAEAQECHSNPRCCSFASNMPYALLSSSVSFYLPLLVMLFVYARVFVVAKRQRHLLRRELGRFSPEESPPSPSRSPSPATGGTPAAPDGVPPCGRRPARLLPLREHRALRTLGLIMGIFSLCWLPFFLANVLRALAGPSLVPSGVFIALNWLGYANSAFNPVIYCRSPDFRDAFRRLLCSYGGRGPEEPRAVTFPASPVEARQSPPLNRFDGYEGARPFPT
Description: as §3, §4

β3 -AR [8] = molecular target: T2, β3 -AR; assay: Effect of a single dose on food intake; format: in vivo; parameters: endogenous in cells; host or cells: whole mice (control +/+ and beta-3-AR-deficient -/-, FVB background); conditions: control mice; 1 mg/kg intraperitoneal; twenty-four hours
Description: as §7, §8

β3 -AR [9] = molecular target: T2, β3 -AR; format: biochemical; parameters: plasma membranes of isolated white adipocytes (epididymal) or interscapular brown adipose tissue; -/- mice are null control; conditions: wild type mice; maximally effective / effective doses
Description: as §2

β3 -AR [10] = molecular target: T2, β3 -AR; format: in vivo; parameters: plasma membranes of isolated white adipocytes (epididymal) or interscapular brown adipose tissue; -/- mice are null control; conditions: control mice; 1.0 mg/kg subcutaneously
Description: as §5, §1

β3 -AR [11] = molecular target: T2, β3 -AR; assay: Acute effect on plasma insulin and blood glucose; format: in vivo; parameters: plasma membranes of isolated white adipocytes (epididymal) or interscapular brown adipose tissue; -/- mice are null control; conditions: control mice; 1 mg/kg intraperitoneal, fifteen minutes
Source text: as §6, §4

Molecule: CC(C)(C)NCC(O)COc1cccc2[nH]c(=O)[nH]c12 (stereo not shown) [CGP-12177]
increase in oxygen consumption (human β3 -AR): twenty

Molecule: C[C@H](Cc1ccc2c(c1)OC(C(=O)O)(C(=O)O)O2)NC[C@H](O)c1cccc(Cl)c1 [CL 316,243]
adenylate cyclase activity in membranes (β3 -AR [1]; β3 -AR-deficient mice, maximally effective doses): absent
lipolysis in adipocytes ([2]; wild type mice, +PIA): stimulated
lipolysis in adipocytes ([2]; β3 -AR-deficient mice, +PIA): absent
FFA (β3 -AR [3]; female -/-): 630 ± 140 µM
increase in serum FFA levels (β3 -AR [3]; β3 -AR-deficient mice): totally absent
increase in oxygen consumption (β3 -AR [4]; β3 -AR-deficient mice, 1.0 mg/kg subcutaneously): totally absent
effect on blood glucose (β3 -AR [5]): completely without effect
effect on plasma insulin levels (β3 -AR [5]): completely without effect
effect on food intake (β3 -AR [6]): completely ineffective
increase in serum FFA levels (β3 -AR [7]; control mice): 3.2 fold
FFA (β3 -AR [7]; serum, fifteen minutes after injection, female +/+): 2,260 ± 350 μM
reduction in food intake (β3 -AR [8]): forty-five
adenylate cyclase activity in membranes (β3 -AR [9]): stimulated
increase in oxygen consumption (β3 -AR [10]): 2 fold
increase in plasma insulin levels (β3 -AR [11]): 140 fold
reduction in blood glucose (β3 -AR [11]): fifty-six

Molecule: C[C@H](Cc1ccccc1)Nc1ncnc2c1ncn2[C@@H]1O[C@H](CO)[C@@H](O)[C@H]1O [PIA, N^6-[R-(-)-1-methyl-2-phenyl]adenosine]
inhibition of isoproterenol-stimulated lipolysis ([2]; control adipocytes, with vs without PIA (10 μM)): only minimally inhibited

Molecule: C=C[C@@]1(C)CC(=O)[C@]2(O)[C@@]3(C)[C@@H](O)CCC(C)(C)[C@@H]3[C@H](O)[C@H](OC(C)=O)[C@@]2(C)O1 [forskolin]
lipolysis in adipocytes ([2]; wild type mice, +PIA): stimulate lipolysis
lipolysis in adipocytes ([2]; β3 -AR-deficient mice, +PIA): stimulate lipolysis

reduction of stimulatory effect on adenylate cyclase activity (β3 -AR [1]; membranes derived from brown adipose tissue): seventy
reduction of stimulatory effect on adenylate cyclase activity (β3 -AR [1]; membranes derived from isolated white adipocytes): eighty
Molecule: CC(C)NCC(O)c1ccc(O)c(O)c1 (stereo not shown) [isoproterenol]
stimulation of lipolysis ([2]; wild type adipocytes, maximally effective concentration, +PIA): about five
reduction of stimulated lipolysis ([2]; β3 -AR-deficient adipocytes, -PIA): about thirty-three
lipolysis in adipocytes ([2]; β3 -AR-deficient mice, +PIA): absent
Glycerol (β3 -AR [3]; mouse, in vivo): 239 ± 15 µM
FFA (β3 -AR [3]; male -/-): 1.510 ± 20 µM
stimulated oxygen consumption (β3 -AR [4]; 0.3 mg/kg subcutaneously, awake): not significantly reduced

Molecule: NC[C@H](O)c1ccc(O)c(O)c1 [norepinephrine]
stimulated oxygen consumption (β3 -AR [4]; 0.6 mg/kg subcutaneously, anesthetized with pentobarbital): not significantly reduced

Molecule: Adrenocorticotropic hormone (SYSMEHFRWGKPVGKKRRPVKVYPNGAEDESAEAFPLEF; Corticotropin; UniProt P01189 138-176, looked up) [ACTH, hormone that stimulates lipolysis via a seven-transmembrane receptor Gαs -adenylate cyclase-coupled mechanism]
lipolysis in adipocytes ([2]; wild type mice, +PIA): increase lipolysis
lipolysis in adipocytes ([2]; β3 -AR-deficient mice, +PIA): increase lipolysis
